The values that follow come from ChEMBL document CHEMBL1201862, “PubChem BioAssay data set” (2004).

For experiment [1], the target named is T1, High affinity choline transporter 1 (Homo sapiens, UniProt Q9GZV3).
T1 sequence (Q9GZV3 whole entry): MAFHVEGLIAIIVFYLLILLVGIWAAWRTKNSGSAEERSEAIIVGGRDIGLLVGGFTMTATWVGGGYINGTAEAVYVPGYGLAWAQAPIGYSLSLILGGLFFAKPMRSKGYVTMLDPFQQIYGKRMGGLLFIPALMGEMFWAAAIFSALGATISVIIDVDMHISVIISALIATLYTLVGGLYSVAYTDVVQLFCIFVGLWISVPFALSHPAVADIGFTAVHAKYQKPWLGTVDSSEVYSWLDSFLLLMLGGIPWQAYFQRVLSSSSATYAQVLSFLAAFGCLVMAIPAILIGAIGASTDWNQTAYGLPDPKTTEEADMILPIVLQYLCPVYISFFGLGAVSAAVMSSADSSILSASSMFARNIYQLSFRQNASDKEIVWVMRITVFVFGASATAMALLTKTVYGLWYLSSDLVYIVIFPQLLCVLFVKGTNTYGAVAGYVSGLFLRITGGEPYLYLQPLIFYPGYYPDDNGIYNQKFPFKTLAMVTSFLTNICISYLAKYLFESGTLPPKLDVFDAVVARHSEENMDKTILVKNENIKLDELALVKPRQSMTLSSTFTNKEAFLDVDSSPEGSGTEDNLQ
Kind of experiment: human choline transporter blockers, potency – cell-based, 5-point CRC, membrane potential dye, dose response (AID 504840). Type of experiment: functional.

The target of experiment [2] is T1, High affinity choline transporter 1. Kind of experiment: human choline transporter blockers, potency – cell-based, 10-point CRC, membrane potential dye, dose response (AID 588401).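 Further: membrane potential dye fluorescence of choline-evoked depolarization via CHT.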 Type of experiment: functional.

Active and inactive are the calls of the source. How the calls were made is not given here.

What is called IC50 is the midpoint of a concentration-inhibition curve. With `Cc1cc(C)c(C(=O)Nc2ccc(S(=O)(=O)Nc3ccccn3)cc2)c(C)c1`, the IC50 in experiment [1] is 4.07 µM (active); in experiment [2], 2.7 µM (active).
